Test results: patent US7297714B2, “Inhibitors of cathepsin S” (IRM LLC, priority 2003, dated 2007)

biological target: Cathepsin B (Homo sapiens, UniProt P07858); assay: Cathepsin B inhibition assay, selectivity for cathepsin S over cathepsin B; assay type: biochemical; settings: ratio of cathepsin B inhibition constant to cathepsin S inhibition constant
Protocol: The optimal substrate for cathepsin B, acetyl-histidine-proline-valine-lysine-amino carbamoyl coumarin, was identified from screening a combinatorial library of fluorogenic peptide substrates (Harris, J. L., B. J. Backes, et al., Proc Natl Acad Sci US A 2000, 97(14), 7754-9). Kinetic measurements are performed in a total reaction volume of 30 μl in 384-well microtiter plates. Cathepsin B, at a final concentration of 1.5 nM (active site), is incubated with the compounds at twelve varying concentrations in a buffer containing 100 mM NaAc (pH5.5), 1 mM EDTA, 100 mM NaCl, 0.01% Brij-35 for 20 minutes at room temperature. Control reactions in the absence of inhibitor are performed in replicates of 24. The reactions are initiated by adding the substrate, acetyl-histidine-proline-valine-lysine-amino carbamoyl coumarin, to a final concentration of 10 μM. The rate of substrate hydrolysis is measured by monitoring the increase in fluorescence at an excitation wavelength of 380 nm and an emission wavelength of 450 nm that results from cleavage of the aniline bond in the substrate by the enzyme. The apparent inhibition constants for the compounds are determined from the enzyme progress curves (Kuzmic, P., K. C. Elrod, et al., Anal Biochem 2000, 286(1), 45-50) and are then used to calculate the inhibition constants for competitive inhibitors.
Selectivity for cathepsin S in the presence of cathepsin isozymes was determined by the ratio of the cathepsin isozyme inhibition constant of a compound of the present invention to the cathepsin S inhibition constant of the same compound. Preferred compounds of the present invention selective for cathepsin S have ratios of greater than 10. More preferred compounds of the present invention selective for cathepsin S have ratios of greater than 100. Most preferred compounds of the present invention selective for cathepsin S have ratios of greater than 1000.

Compound | Selectivity for Cat. S over Cat. B
O=C1C[C@H](NC(=O)[C@H](CC2CCCC2)NC(=O)c2ccc(-c3cccc(F)c3)o2)C(O)O1 (stereo partly drawn) [Example 1, (3S)-(3-Cyclopentyl-(2S)-{[5-(3-fluoro-phenyl)-furan-2-carbonyl]-amino}-propionylamino)-4-oxo-butyric acid] | +++ (+++, >1000)
O=C1C[C@H](NC(=O)[C@H](CC2CCCC2)NC(=O)N2CCOCC2)C(O)O1 (stereo partly drawn) [Example 2, (3S)-{3-Cyclopentyl-(2S)-[(morpholine-4-carbonyl)-amino]-propionylamino}-4-oxo-butyric acid] | +++ (+++, >1000)
O=C1C[C@H](NC(=O)[C@H](CC2CCCCC2)OC(=O)N2CCOCC2)C(O)O1 (stereo partly drawn) [Example 3, (3S)-{3-cyclohexyl-(2S)-(morpholine-4-carbonyloxy)-propionylamino}-4-oxo-butyric acid] | +++ (+++, >1000)
O=C[C@H](CC(=O)O)NC(=O)[C@@H](CC(=O)N1CCOCC1)CC1CCCC1 [Example 4, (3S)-[(2R)-Cyclopentylmethyl-4-morpholin-4-yl-4-oxo-butyrylamino]-4-oxo-butyric acid] | +++ (+++, >1000)
O=C1C[C@H](NC(=O)O[C@@H](CC2CCCC2)Cn2cnc3cc(Cl)c(Cl)cc32)C(O)O1 (stereo partly drawn) [Example 5, (3S)-[(1S)-Cyclopentylmethyl-2-(5,6-dichloro-benzoimidazol-1-yl)-ethoxycarbonylamino]-4-oxo-butyric acid] | +++ (+++, >1000)
O=C1C[C@H](NC(=O)[C@@H](CC(=O)N2CCOCC2)CC2CCCCC2)C(O)O1 (stereo partly drawn) [Example 6, (3S)-{(2R)-Cyclohexylmethyl-4-morpholin-4-yl-4-oxo-butyrylamino}-4-oxo-butyric acid] | +++ (+++, >1000)
O=C1C[C@H](NC(=O)[C@H](CC2CCCCC2)NS(=O)(=O)c2cccc(OC(F)(F)F)c2)C(O)O1 (stereo partly drawn) [Example 7, (3S)-[3-Cyclohexyl-(2S)-(3-trifluoromethoxy-benzenesulfonylamino)-propionylamino]-4-oxo-butyric acid] | +++ (+++, >1000)
O=C1C[C@H](NC(=O)[C@H](CC2CCCC2)NS(=O)(=O)c2cccc(OC(F)(F)F)c2)C(O)O1 (stereo partly drawn) [Example 8, (3S)-[3-Cyclopentyl-(2S)-(3-trifluoromethoxy-benzenesulfonylamino)-propionylamino]-4-oxo-butyric acid] | +++ (+++, >1000)
CC(C)(C)C[C@H](OC(=O)N[C@H]1CC(=O)OC1O)C(=O)N1CCOCC1 (stereo partly drawn) [Example 9, (3S)-[3,3-Dimethyl-(1S)-(morpholine-4-carbonyl)-butoxycarbonylamino]-4-oxo-butyric acid] | ++ (++, >100)
O=C1C[C@H](NC(=O)O[C@@H](CC2CCCCC2)C(=O)N2CCOCC2)C(O)O1 (stereo partly drawn) [Example 10, (3S)-[2-cyclohexyl-(1S)-(morpholin-4-carbonyl)-ethoxycarbonylamino]-4-oxo-butyric acid] | +++ (+++, >1000)
